Assay results reported in patent publication US20020172720A1, “Control of pseudomonas aeruginosa” (priority 2001, published 2002).
Values joined by “and” are separate entries in the source; they are usually repeats but may differ in a detail not shown here. Equal entries are not always repeated.

Test system: Pseudomonas aeruginosa (ATCC 15442) biofilm
Assay: MBEC (minimum biofilm eradication concentration) test, Calgary Biofilm Device
Type: cell-based
Conditions: for MBEC, ppm as Br2, on 7-day old biofilm: one-hour biocide contact time, biofilm grown seven days in nutrient solution, halogen biocides expressed as Br2
Source text: The efficacy of this invention in eradicating (i.e. controlling) Pseudomonas aeruginosa biofilm of sufficient age such that it had developed an extracellular polysaccharide protective slime layer, was shown by a series of standard tests performed on our behalf at MBEC Biofilm Technologies, Inc., Calgary, Canada. The test procedure, developed at the University of Calgary, utilizes a device which allows the growth of 96 identical biofilms under carefully controlled conditions. The device consists of a two-part vessel comprised of an upper plate containing 96 pegs that seals against a bottom plate. The bottom plate can consist of either a trough (for biofilm growth) or a standard 96-well plate (for biocide challenge). The biofilms develop on the 96 pegs. The device has been used as a general method for evaluating the efficacy of antibiotics and biocides towards biofilms. See in this connection H. Ceri, et al., “The MBEC Test: A New In Vitro Assay Allowing Rapid Screening for Antibiotic Sensitivity of Biofilm”, Proceedings of the ASM, 1998,89,525; Ceri, et al., “Antifungal and Biocide Susceptibility testing of Candida Biofilms using the MBEC Device”, Proceedings of the Interscience Conference on Antimicrobial Agents and Chemotherapy, 1998, 38, 495; and H. Ceri, et al., “The Calgary Biofilm Device: A New Technology for the Rapid Determination of Antibiotic Susceptibility of Bacterial Biofilms”, Journal of Clinical Microbiology, 1999, 37, 1771-1776.
Six biocide systems were evaluated using the above test procedure and test equipment. Five of these systems were oxidizing biocides, viz., chlorine (from NaOCl), bromine (from NaOCl+NaBr), bromine and chlorine (from BCDMH), bromine (from sulfamate stabilized bromine chloride), and chlorine (from trichloroisocyanuric acid), all expressed as bromine (Br2) in mg/L, so that all test results were placed on the same basis. The sixth biocide was glutaraldehyde, a non-oxidizing biocide.
These biocide systems were used to challenge biofilms of Pseudomonas aeruginosa (ATCC 15442). This is a Gram (−) bacterium which is known to rapidly develop an extracellular polysaccharide slime layer, and is found in industrial and recreational water systems. See in this connection J. W. Costerton and H. Anwar, “Pseudomonas aeruginosa: The Microbe and Pathogen”, in Pseudomonas aeruginosa Infections and Treatment, A. L. Baltch and R. P. Smith editors, Marcel Dekker publishers, New York, 1994.
In the Table the MBEC (minimum biofilm eradication concentration) results presented are for the one-hour biocide contact time used in the test. The Psuedomonas aeurginosa colony was allowed to grow in contact with a nutrient solution for seven days. The values given for the halogen containing biocides are expressed in terms of mg/L of bromine as Br2. The data on the glutaraldehyde is in terms of mg/L as active ingredient. […]

[1] = average of the results, one-hour contact time, 7-day old biofilm, expressed as Br2

CC1(C)C(=O)N(Cl)C(=O)N1Br [Bromine and chlorine (from BCDMH), N,N′-bromochloro-5,5-dimethylhydantoin]
MBEC, avg. [1]: 7.5 ppm as Br2
MBEC, ppm as Br2, on 7-day old biofilm (individual results): 5 ppm as Br2 and 10 ppm as Br2

O=c1n(Cl)c(=O)n(Cl)c(=O)n1Cl [trichloroisocyanuric acid]
MBEC, avg. [1]: 20 ppm as Br2
MBEC, ppm as Br2, on 7-day old biofilm (individual results): 20, 20 ppm as Br2

O=CCCCC=O [Glutaraldehyde, glutaraldehyde]
MBEC, avg. (average (est.), one-hour contact time, 7-day old biofilm, glutaraldehyde as active ingredient): ~200 (est.) mg/L as active ingredient
MBEC, on 7-day old biofilm (individual results, one-hour contact time, 7-day old biofilm, glutaraldehyde as active ingredient): 100 mg/L as active ingredient and > 200 mg/L as active ingredient
